Literature values, collected in patent US20060280819A1, “Ellagic acid food supplement prepared from pomegranate seed” (priority 2005, published 2006).

What was measured:
[1] = test system: breast, pancreas, esophageal, skin, colon and prostate cancer cells
p53 gene = conditions: clinical tests
cancer cells = conditions: lab tests
normal healthy cells = conditions: lab tests

Compound: O=c1oc2c(O)c(O)cc3c(=O)oc4c(O)c(O)cc1c4c23 [ellagic acid]
- time to G-arrest (inhibiting and stopping mitosis-cancer cell division) [1]: ≤ 48 h
- time to apoptosis (normal cell death) [1]: ≤ 72 h
- effect on destruction of the p53 gene by cancer cells (p53 gene): prevents the destruction of the p53 gene
- apoptosis (cell death) of cancer cells (cancer cells): causes apoptosis
- effect on normal healthy cells (normal healthy cells): no change
